Assay results taken from patent publication US11634404B2 (priority 2016, dated 2023).
Where two headings read alike, the source gives them in different places.

Assays:
TA98 = experiment: Ames reverse mutation assay; type: cell-based; conditions: highest conc. tested 2,000 μg/ml
Procedure: (§1) […]. The cultures were then diluted into an indicator medium lacking histidine, dispensed into a 384-well plate, and incubated for 48 h at 37° C. Cells that have undergone a reversion will grow, resulting in a color change. The number of wells showing growth were counted and compared to the vehicle control. […]. Data were analyzed using an unpaired, one-sided Student's T-test. Where indicated, S9 fraction from the livers of Aroclor 1254-treated rats were included in the incubation at a 4.5% final concentration. An NADPH-regenerating system was also included to ensure a steady supply of reducing equivalents.

TA100 = experiment: Ames reverse mutation assay; type: cell-based; conditions: highest conc. tested 2,000 μg/ml
Procedure: as §1

[1] = test system: receptors, transporters and some ion channels; experiment: PDSP primary radioligand binding panel; conditions: 10 μM, >50% inhibition considered significant
Excerpt: […]. […] […]. […] […].

panel of 168 GPCRs [2] = target: panel of 168 GPCRs (Homo sapiens, UniProt Q92847); type: cell-based; conditions: GPCR GHSR; agonist, 10 μM
panel of 168 GPCRs [3] = target: panel of 168 GPCRs (Homo sapiens, UniProt P35372); type: cell-based; conditions: GPCR OPRM1; agonist, 10 μM
panel of 168 GPCRs [4] = target: panel of 168 GPCRs (Homo sapiens, UniProt P51685); type: cell-based; conditions: GPCR CCR8; agonist, 10 μM
panel of 168 GPCRs [5] = target: panel of 168 GPCRs (Homo sapiens, UniProt Q96P65); type: cell-based; conditions: GPCR GPR103; agonist, 10 μM
panel of 168 GPCRs [6] = target: panel of 168 GPCRs (Homo sapiens, UniProt O43613); type: cell-based; conditions: GPCR HCRTR1; agonist, 10 μM
panel of 168 GPCRs [7] = target: panel of 168 GPCRs (Homo sapiens, UniProt P21554); type: cell-based; conditions: GPCR CNR1; agonist, 10 μM
panel of 168 GPCRs [8] = target: panel of 168 GPCRs (Homo sapiens, UniProt Q9UKP6); type: cell-based; conditions: GPCR UTR2; agonist, 10 μM
panel of 168 GPCRs [9] = target: panel of 168 GPCRs (Homo sapiens, UniProt Q8TDV5); type: cell-based; conditions: GPCR GPR119; agonist, 10 μM
panel of 168 GPCRs [10] = target: panel of 168 GPCRs (Homo sapiens, UniProt P08908); type: cell-based; conditions: GPCR HTR1A; agonist, 10 μM
panel of 168 GPCRs [11] = target: panel of 168 GPCRs (Homo sapiens, UniProt P0DMS8); type: cell-based; conditions: GPCR ADORA3; agonist, 10 μM
panel of 168 GPCRs [12] = target: panel of 168 GPCRs (Homo sapiens, UniProt Q9GZQ6); type: cell-based; conditions: GPCR NPFFR1; agonist, 10 μM
panel of 168 GPCRs [13] = target: panel of 168 GPCRs (Homo sapiens, UniProt P48546); type: cell-based; conditions: GPCR GIPR; agonist, 10 μM
panel of 168 GPCRs [14] = target: panel of 168 GPCRs (Homo sapiens, UniProt O43614); type: cell-based; conditions: GPCR HCRTR2; agonist, 10 μM
panel of 168 GPCRs [15] = target: panel of 168 GPCRs (Homo sapiens, UniProt P30988); type: cell-based; conditions: agonist, 10 μM
panel of 168 GPCRs [16] = target: panel of 168 GPCRs (Homo sapiens, UniProt P49238); type: cell-based; conditions: GPCR CX3CR1; agonist, 10 μM
panel of 168 GPCRs [17] = target: panel of 168 GPCRs (Homo sapiens, UniProt P51681); type: cell-based; conditions: GPCR CCR5; agonist, 10 μM
panel of 168 GPCRs [18] = target: panel of 168 GPCRs (Homo sapiens, UniProt P35367); type: cell-based; conditions: GPCR HRH1; agonist, 10 μM
panel of 168 GPCRs [19] = target: panel of 168 GPCRs (Homo sapiens, UniProt P21462); type: cell-based; conditions: GPCR FPR1; agonist, 10 μM
D3R [20] = target: T1, D3R (Homo sapiens (Human), UniProt P35462); experiment: Go BRET activation assay; type: cell-based; conditions: orthogonal assay
D3R [21] = target: T1, D3R; experiment: BRET arrestin recruitment assay; type: cell-based; conditions: orthogonal assay

panel of 168 GPCRs (Homo sapiens, UniProt P30988), sequence (P30988 25-474 limits assumed): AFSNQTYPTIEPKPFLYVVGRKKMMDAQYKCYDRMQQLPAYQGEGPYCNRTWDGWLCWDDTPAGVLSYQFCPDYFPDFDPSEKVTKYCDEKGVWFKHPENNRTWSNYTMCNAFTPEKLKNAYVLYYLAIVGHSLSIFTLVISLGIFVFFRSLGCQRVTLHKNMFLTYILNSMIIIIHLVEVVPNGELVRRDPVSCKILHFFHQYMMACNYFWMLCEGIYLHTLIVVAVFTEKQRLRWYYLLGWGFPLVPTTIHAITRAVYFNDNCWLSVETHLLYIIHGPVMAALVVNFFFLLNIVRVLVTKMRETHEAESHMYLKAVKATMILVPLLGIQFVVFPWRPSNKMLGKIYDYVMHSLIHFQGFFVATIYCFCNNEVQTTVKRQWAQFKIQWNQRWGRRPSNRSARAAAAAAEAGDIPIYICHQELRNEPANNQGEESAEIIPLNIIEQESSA
T1 sequence (P35462 whole entry): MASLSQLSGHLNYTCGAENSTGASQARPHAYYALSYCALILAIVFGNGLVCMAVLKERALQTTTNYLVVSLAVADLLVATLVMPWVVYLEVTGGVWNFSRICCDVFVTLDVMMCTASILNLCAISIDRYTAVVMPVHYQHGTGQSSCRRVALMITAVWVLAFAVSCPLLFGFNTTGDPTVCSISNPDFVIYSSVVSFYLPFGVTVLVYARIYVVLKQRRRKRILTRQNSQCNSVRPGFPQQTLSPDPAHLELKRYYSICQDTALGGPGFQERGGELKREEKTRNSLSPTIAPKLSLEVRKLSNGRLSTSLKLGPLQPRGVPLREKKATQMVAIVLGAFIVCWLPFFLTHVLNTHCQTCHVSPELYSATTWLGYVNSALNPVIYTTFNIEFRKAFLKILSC
panel of 168 GPCRs (Homo sapiens, UniProt P48546), sequence (P48546 22-466 limits assumed): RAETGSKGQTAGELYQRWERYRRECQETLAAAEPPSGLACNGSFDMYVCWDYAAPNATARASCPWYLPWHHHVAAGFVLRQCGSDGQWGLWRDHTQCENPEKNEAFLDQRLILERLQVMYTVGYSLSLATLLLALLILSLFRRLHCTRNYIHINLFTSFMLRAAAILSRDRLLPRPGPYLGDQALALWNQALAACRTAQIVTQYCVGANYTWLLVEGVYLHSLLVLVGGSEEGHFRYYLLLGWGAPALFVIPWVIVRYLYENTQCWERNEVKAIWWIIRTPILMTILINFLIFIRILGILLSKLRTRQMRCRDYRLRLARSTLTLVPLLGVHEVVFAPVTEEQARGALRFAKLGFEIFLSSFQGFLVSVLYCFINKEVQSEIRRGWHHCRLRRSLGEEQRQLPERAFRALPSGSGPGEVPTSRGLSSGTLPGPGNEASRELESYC

With `COc1ccc(OCCN2CCN(C(=O)c3cc4ccccc4[nH]3)CC2)cc1` [Compound 1, (1H-indol-2-yl)(4-(2-(4-methoxyphenoxy)ethyl)piperazin-1-yl)methanone] the “AMES Result” value (TA98; TA98, S9 No) was “Negative”, the “AMES Result” value (TA98; TA98, S9 Yes) was “Negative” and the “AMES Result” value (TA100; TA100, S9 No) was “Negative”. The “AMES Result” value (TA100; TA100, S9 Yes) was “Negative”, the “affinity in primary binding panel” value [1] was “displays affinity for only the D3R, 5-HT1A, 5-HT2B, and Sigmal receptor” and the “β-Arrestin Recruitment activity” value (panel of 168 GPCRs [2]) was −3%. For the same compound, the “β-Arrestin Recruitment activity” value (panel of 168 GPCRs [3]) was 0%, the “β-Arrestin Recruitment activity” value (panel of 168 GPCRs [4]) was 0% and the “β-Arrestin Recruitment activity” value (panel of 168 GPCRs [5]) was −9%. For the same compound, the “β-Arrestin Recruitment activity” value (panel of 168 GPCRs [6]) was 0%, the “β-Arrestin Recruitment activity” value (panel of 168 GPCRs [7]) was 5% and the “β-Arrestin Recruitment activity” value (panel of 168 GPCRs [8]) was 0%. The “β-Arrestin Recruitment activity” value (panel of 168 GPCRs [9]) was 16%, the “β-Arrestin Recruitment activity” value (panel of 168 GPCRs [10]) was 8% and the “β-Arrestin Recruitment activity” value (panel of 168 GPCRs [11]) was 8%. The “β-Arrestin Recruitment activity” value (panel of 168 GPCRs [12]) was 4%, the “β-Arrestin Recruitment activity” value (panel of 168 GPCRs [13]) was 3% and the “β-Arrestin Recruitment activity” value (panel of 168 GPCRs [14]) was 0%. For the same compound, the “β-Arrestin Recruitment activity” value (panel of 168 GPCRs [15]; GPCR CALCR RAMP2) was 5%, the “β-Arrestin Recruitment activity” value (panel of 168 GPCRs [15]; GPCR CALCR RAMP3) was 6% and the “β-Arrestin Recruitment activity” value (panel of 168 GPCRs [15]; GPCR CALCR) was 0%. For the same compound, the “β-Arrestin Recruitment activity” value (panel of 168 GPCRs [16]) was 0%, the “β-Arrestin Recruitment activity” value (panel of 168 GPCRs [17]) was 0% and the “β-Arrestin Recruitment activity” value (panel of 168 GPCRs [18]) was 0%. The “β-Arrestin Recruitment activity” value (panel of 168 GPCRs [19]) was 5%, the “agonist activity, G-protein mediated signaling (Go BRET)” value (D3R [20]) was “potent and fully efficacious D3R-selective agonist” and the “agonist activity, β-arrestin recruitment (BRET)” value (D3R [21]) was “potent and fully efficacious D3R-selective agonist”.
